From patent EP0603240B1, “SAFENING HERBICIDAL PYRAZOLYLSULFONYLUREAS” (priority 1991, dated 1993)

What was measured:
[1] = tested on: velvetleaf (Abutilon theophrasti); assay: Example 14, Procedure II: Herbicide No. 1 + metolachlor (No. 12) with Antidote No. 17; type: in vivo
corn = assay: as above; type: in vivo
Procedure: Containers were filled and compacted with a fumigated silt loam top soil to a depth of about 1.3 cm from the top of the container. A first container was designated as an untreated control, a second container was designated as a herbicide control, and a third container was designated as a herbicide + antidote test container. Each of the containers was seeded with a crop species. A measured amount of herbicide dispersed or dissolved in acetone was applied to a measured quantity of soil. To this same quantity of soil treated with herbicide, there was added a measured amount of antidote dispersed or dissolved in acetone. The quantity of soil treated with the herbicide and antidote was thoroughly mixed to incorporate the herbicide and antidote in the soil uniformly. The seed bed in the third container of soil was covered with the soil treated with the herbicide and antidote and the container was leveled. For each test series, the seed beds of the first and second containers were likewise covered by soil layers. the cover layer of the first container was not treated with herbicide or antidote.
The containers were then placed on a bench in a greenhouse and sub-irrigated as required for the duration of the test. […] Plant response is measured in terms of percent injury. Antidote efficacy is indicated as the difference in plant injury by the herbicide(s) without the antidote and with the antidote.
This procedure is the same as Procedure I, but modified in the manner that after incorporation of the chemicals (herbicide and antidote) the containers with the covered seedbed were treated with an initial overhead irrigation equivalent to 0.6 cm rainfall, then subsequently sub-irrigated as required on greenhouse benches.
In this example a plurality of dichloroacetamide antidotes were tested for their safening efficacy against a herbicidal composition comprising Herbicide No. […] The procedure used in this example was Procedure II above. […]

[2] = Herbicide No.1 0.14 + No.12 4.48 kg/ha + Antidote No.17 0.15 kg/ha
[3] = Herbicide No.1 0.56 + No.12 4.48 kg/ha + Antidote No.17 0.15 kg/ha
[4] = Herbicide No.1 2.24 + No.12 4.48 kg/ha + Antidote No.17 0.15 kg/ha

CC1COc2ccccc2N1C(=O)C(Cl)Cl (stereo not drawn) [compound 17]
% Injury VL [1, 2]: 90%
% Injury VL [1, 3]: 95%
% Injury VL [1, 4]: 100%
% Injury Corn (corn; [2]): 15%
% Injury Corn (corn; [3]): 25%
% Injury Corn (corn; [4]): 80%
